Reference: patent US12612465B2, “Formulations comprising PCSK9 specific monoclonal antibodies” (Amgen Inc., priority 2012, dated 2026)

Experiments:
PCSK9 [1] = target: PCSK9 (Homo sapiens, UniProt Q8NBP7); assay: 11F1 binding specificity competition assay; settings: 0.4 μg/mL 11F1, 0 to 20 μg/mL competitor
Procedure: (§1) Biotinylated PCSK9, diluted in buffer A (25 mM Tris, 150 mM NaCl, 0.1% BSA, 0.05% tween, pH 7.5) was bound to neutravidin coated 96 well plates at a concentration of 0.2 μg/mL, for one hour incubation at room temperature. Separately, 0.4 μg/mL of 11F1 was incubated for one hour at room temperature with various concentrations (ranging from 0 to 20 μg/mL) of either PCSK1, PCSK2, PCSK7, PCSK9 or furin (R&D Systems, Minneapolis, Minn.) (diluted in buffer A w/o tween). Furin inhibitor, at 4.5 μg/mL, was included with all furin containing reactions. The PCSK9 coated streptavidin plate was washed with buffer A and the antibody/proprotein convertase mixture was added to the plate and incubated at room temperature for one hour. After washing, bound antibody was detected by incubation with goat-α-human Fc-HRP (160 ng/mL, diluted in buffer A) (Jackson Laboratories, Bar Harbor, Me.) followed by TMB substrate. The reaction was stopped with 1 N HCl and the absorbance was read at a wavelength of 450 nm on a Spectramax Plus 384 spectrophotometer (Molecular Devices Inc., Sunnyvale, Calif.).
(§2) This assay relied on the ability of proprotein convertase in solution to compete for the binding of 11F1 to plate-captured PCSK9. […] All results were expressed as the mean OD450 value±standard deviation versus concentration of the proprotein convertase. […] Therefore, at the protein concentrations studied, 11F1 binds only to PCSK9 and not to the other proprotein convertase family members tested.

PCSK7 = target: T1, PCSK7 (Homo sapiens, UniProt Q16549); assay: 11F1 binding specificity competition assay; settings: 0.4 μg/mL 11F1, 0 to 20 μg/mL competitor
T1 construct: purchased R&D Systems
T1 sequence (Q16549 142-785): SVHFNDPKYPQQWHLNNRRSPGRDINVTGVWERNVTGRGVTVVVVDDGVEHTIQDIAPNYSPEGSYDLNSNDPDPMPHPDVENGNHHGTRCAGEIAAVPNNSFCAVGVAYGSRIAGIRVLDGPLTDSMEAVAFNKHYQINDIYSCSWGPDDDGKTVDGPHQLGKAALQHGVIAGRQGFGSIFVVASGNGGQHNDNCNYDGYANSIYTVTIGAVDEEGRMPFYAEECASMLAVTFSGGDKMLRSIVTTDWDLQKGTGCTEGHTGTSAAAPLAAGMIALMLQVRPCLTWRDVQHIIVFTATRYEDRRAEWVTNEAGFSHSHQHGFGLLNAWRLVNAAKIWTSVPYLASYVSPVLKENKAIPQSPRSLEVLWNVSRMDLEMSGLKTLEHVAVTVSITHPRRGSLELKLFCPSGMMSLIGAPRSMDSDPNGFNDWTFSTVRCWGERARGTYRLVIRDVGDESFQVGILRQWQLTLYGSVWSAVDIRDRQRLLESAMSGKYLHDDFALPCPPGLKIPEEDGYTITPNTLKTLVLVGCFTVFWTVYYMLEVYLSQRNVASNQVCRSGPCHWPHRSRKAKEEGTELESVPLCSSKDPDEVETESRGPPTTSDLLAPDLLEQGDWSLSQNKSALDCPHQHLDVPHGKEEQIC
Procedure: as §1, §2

PCSK9 [2] = assay: Serum lipids after a single subcutaneous dose in cynomolgus monkeys; format: in vivo, cynomolgus monkey; settings: 0.5 mg/kg single SC
From the text: Briefly, naive male cynomolgus monkeys were acclimated to their environment for at least 2 weeks prior to experimentation. Animals were randomized into treatment groups based on a pre-screen of their serum TC, HDL-C, LDL-C, and triglyceride levels, and their body weight. After 1 week, animals were fasted overnight, and bled from the peripheral vasculature (cephalic or saphenous vein), for measurement of baseline serum lipid levels at a time point designated T=0. […] Fasting blood samples were then collected from animals at designated time points over a 45 day period.
At specified time points, blood was collected from animals under overnight fasting conditions from the peripheral vasculature (cephalic or saphenous vein). Whole blood was allowed to coagulate for 30 minutes at room temperature. Following centrifugation at 3,000 rpm for 20 minutes, serum was collected. Direct serum cholesterol analysis was performed using the Cobas Integra 400 analyzer (Roche Diagnostics Inc, Indianapolis, Ind.). Apolipoprotein B serum levels were determined at specified time points (day 0, 3, 6, 15, 24 and 33) by Anilytics, Md., with the following methodology. A 17 μL aliquot of the sample (no preparation) was used for analysis with a Hitachi 717 Analyzer using a 6 points standard curve. If the initial value of the sample was higher than the standard curve linearity, then the sample was diluted and repeated with the result multiplied by the appropriate dilution factor. The reagents for the assay (APO-B Reagent Kit #86071, Antibody Set #86060, Control Set #86103) were obtained from DiaSorin (Stillwater, Minn.).
A statistical model that considers baseline as a covariate and treatment group as a fixed effect was fit to the log transformed response at each time point for LDL-C, HDL-C, TC, and triglycerides. Tukey's multiple comparison correction was applied to adjust the pair wise comparisons at each time point. The statistical significance was evaluated at alpha=0.05 using adjusted p-values.

[3] = Pharmacokinetics in mice expressing human PCSK9 by AAV; format: in vivo, mouse; settings: 30 mg/kg intravenous
Procedure: Serum concentrations of antibody were determined using a sandwich ELISA assay. Polyclonal goat anti-human Fc IgG and an HRP-labeled goat anti-human IgG Fcγ polyclonal reagent (both from Jackson ImmunoResearch Laboratories Inc, West Grove, Pa.) were used as the capture and the detection antibody, respectively. A 3,3′,5,5′ tetramethylbenzidine (TMB) substrate solution reacted with peroxide, and in the presence of horse radish peroxidase (HRP), created a colorimetric signal that was proportional to the amount of the respective anti-PCSK9 antibody bound by the capture reagent. The intensity of the color (optical density, OD) was measured at 450 nm minus 650 nm using a microplate reader (Spectra Max Plus 384). Data was analyzed using Watson version 7.0.0.01 (Thermo Scientific, Waltham, Mass.) data reduction package with a Logistic (auto-estimate) regression of separately prepared standard curves. The lower limit of quantification (LLOQ) for the assay was […].
Non-compartmental analysis (NCA) was performed on serum concentrations using the pre-determined nominal time points for each subject using WinNonlin Enterprise, version 5.1.1 (Pharsight, St. Louis, Mo.). […] NCA parameters reported include: apparent half-life (t½), area under the serum concentration-time curve from time zero to the last measured concentration (AUC0-t), and apparent serum clearance (CL0-t). […]

PCSK9 (Homo sapiens, UniProt Q8NBP7), sequence (Q8NBP7 153-692): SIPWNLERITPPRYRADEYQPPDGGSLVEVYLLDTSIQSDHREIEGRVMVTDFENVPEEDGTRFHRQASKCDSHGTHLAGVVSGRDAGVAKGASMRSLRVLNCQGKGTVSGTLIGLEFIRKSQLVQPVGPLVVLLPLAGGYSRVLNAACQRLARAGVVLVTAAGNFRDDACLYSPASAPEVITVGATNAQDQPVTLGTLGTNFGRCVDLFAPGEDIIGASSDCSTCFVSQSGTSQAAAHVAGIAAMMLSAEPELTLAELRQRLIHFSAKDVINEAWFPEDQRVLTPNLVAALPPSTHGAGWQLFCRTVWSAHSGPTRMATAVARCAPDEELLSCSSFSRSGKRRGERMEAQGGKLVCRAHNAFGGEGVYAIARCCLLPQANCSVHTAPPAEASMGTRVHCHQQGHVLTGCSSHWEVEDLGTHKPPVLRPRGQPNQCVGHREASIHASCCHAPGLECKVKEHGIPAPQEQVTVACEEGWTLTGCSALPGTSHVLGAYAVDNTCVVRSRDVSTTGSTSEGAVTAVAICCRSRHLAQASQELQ

11F1: anti-PCSK9 ABP, light/heavy variable region SEQ ID NO 465/463 [Antibody 11F1]
effect of pre-incubation with PCSK9 in solution on 11F1 binding to plate-captured PCSK9 (PCSK9 [1]): dose dependently and robustly reduced
effect of pre-incubation with PCSK7 in solution on 11F1 binding to plate-captured PCSK9 (PCSK7): did not significantly impact the binding
TC returned to levels similar to control animals (PCSK9 [2]): ≤ 27 days
maximal LDL-C lowering as compared to control animals (PCSK9 [2]): 57%
maximal TC lowering as compared to control animals (PCSK9 [2]): 27%
maximal lowering of LDL-C vs anti-KLH IgG2 control at the same time point (change) (PCSK9 [2]): −57%
serum HDL-C vs anti-KLH IgG2 control (PCSK9 [2]): No statistically significant changes
time of maximal LDL-C lowering after injection (PCSK9 [2]): 9 days
time of maximal TC lowering after injection (PCSK9 [2]): 9 days
triglycerides levels vs anti-KLH IgG2 control (PCSK9 [2]): No statistically significant changes
serum ApoB vs anti-KLH IgG2 control (PCSK9 [2]; days 3, 6, 15, 24 and 33): ApoB lowering at days 3 to 24
HDL-C or triglyceride levels vs anti-KLH IgG2 control (PCSK9 [2]; each time point, alpha=0.05): not significantly different
AUC0-t exposures, estimated CL0-t and apparent half-lives of 11F1 vs 8A3 [3]: equivalent
